Counter-ions that a name gives are not always drawn.
System: not given
Assay: not given
Conditions: not given

melting point [°C]	SMILES
73.5	CC(C)=CCn1c(N2CC[C@@H]3CN(C)C[C@@H]32)nc2c1c(=O)n(CC(=O)c1ccccc1)c(=O)n2C (relative stereo) [Example 2, 3-Methyl-7-(3-methylbut-2-enyl)-8-(cis-5-methylhexahydropyrrolo[3,4-b]pyrrole-1-yl)-1-(2-oxo-2-phenylethyl)-3,7-dihydropurine-2,6-dione]

Target: T1, DPP-IV from porcine kidney (Sus scrofa, UniProt P22411)
T1 construct: DPP-IV from porcine kidney (Sigma, Munich); purchased Sigma, Munich; host or cells: porcine kidney (tissue-derived enzyme)
T1 sequence (P22411 whole entry): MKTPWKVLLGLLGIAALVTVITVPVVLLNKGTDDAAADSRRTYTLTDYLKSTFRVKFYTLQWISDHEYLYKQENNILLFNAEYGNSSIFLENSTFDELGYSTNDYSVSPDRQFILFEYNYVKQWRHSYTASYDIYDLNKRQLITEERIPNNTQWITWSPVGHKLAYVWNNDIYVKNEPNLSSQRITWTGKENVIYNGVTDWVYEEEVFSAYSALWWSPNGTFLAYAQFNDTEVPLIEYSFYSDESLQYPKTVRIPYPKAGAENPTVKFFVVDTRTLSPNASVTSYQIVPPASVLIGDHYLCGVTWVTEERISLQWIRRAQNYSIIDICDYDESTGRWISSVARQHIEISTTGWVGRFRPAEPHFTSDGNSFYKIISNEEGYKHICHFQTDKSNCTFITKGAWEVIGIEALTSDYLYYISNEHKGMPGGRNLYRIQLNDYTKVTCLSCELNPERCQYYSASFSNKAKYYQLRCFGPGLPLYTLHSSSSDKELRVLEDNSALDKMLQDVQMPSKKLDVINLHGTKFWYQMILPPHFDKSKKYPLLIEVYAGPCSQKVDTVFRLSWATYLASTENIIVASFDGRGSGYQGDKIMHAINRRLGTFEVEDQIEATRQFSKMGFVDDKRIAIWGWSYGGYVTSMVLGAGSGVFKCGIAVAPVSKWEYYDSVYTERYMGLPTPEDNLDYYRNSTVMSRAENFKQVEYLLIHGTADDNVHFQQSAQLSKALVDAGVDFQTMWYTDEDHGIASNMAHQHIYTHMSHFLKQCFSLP
Assay: Measurement of the DPP-IV activity (fluorimetric H-Ala-Pro-AFC conversion)
Type: biochemical
Conditions: DPP-IV 1 mU/ml, H-Ala-Pro-AFC 15 μM, Tris/HCl 40 mM pH 7.4, room temperature
Procedure: The reaction was carried out at room temperature for various times (typically 10 min) and stopped at the end of the reaction by adding 20 μl of ZnCl2(1 M). […] When inhibitors were added, the added buffer volume was adapted so that a total volume of 200 μl was maintained for the assay mixture.

SMILES	IC50 [nM]
Cn1c(=O)n(CC(=O)c2ccccc2)c(=O)c2c1nc(N1CCC3CNCC31)n2Cc1ccccc1 (stereo not shown) [Example 5, 7-Benzyl-8-(hexahydropyrrolo[3,4-b]pyrrol-1-yl)-3-methyl-1-(2-oxo-2-phenylethyl)-3,7-dihydropurine-2,6-dione hydrochloride]	7.2
CC(C)=CCn1c(N2CCC3CNCC32)nc2c1c(=O)n(CC(=O)c1ccccc1)c(=O)n2CC(F)(F)F (stereo not shown) [Example 35, 8-(Hexahydropyrrolo[3,4-b]pyrrol-1-yl)-7-(3-methylbut-2-enyl)-1-(2-oxo-2-phenylethyl)-3-(2,2,2-trifluoroethyl)-3,7-dihydropurine-2,6-dione hydrochloride]	50
CCn1c(=O)n(CC(=O)c2ccccc2)c(=O)c2c1nc(N1CCC3CNCC31)n2CC=C(C)C (stereo not shown) [Example 15, 3-Ethyl-8-(hexahydropyrrolo[3,4-b]pyrrol-1-yl)-7-(3-methylbut-2-enyl)-1-(2-oxo-2-phenyl-ethyl)-3,7-dihydropurine-2,6-dione hydrochloride]	5
CC(C)=CCn1c(N2CCC3CNCC32)nc2c1c(=O)n(CCc1ccccc1)c(=O)n2C1CC1 (stereo not shown) [Example 21, 3-Cyclopropyl-8-(hexahydropyrrolo[3,4-b]pyrrol-1-yl)-7-(3-methylbut-2-enyl)-1-phenethyl-3,7-dihydropurine-2,6-dione hydrochloride]	71
Cn1c(=O)c2c(nc(N3CCC4CNCC43)n2Cc2ccccc2Cl)n(C)c1=O (stereo not shown) [Example 97, 7-(2-Chlorobenzyl)-8-(hexahydropyrrolo[3,4-b]pyrrol-1-yl)-1,3-dimethyl-3,7-dihydropurine-2,6-dione trifluoroacetate]	20

Next, values leading:

IC50 [nM]	SMILES
10	CC(C)=CCn1c(N2CCC3CNCC32)nc2c1c(=O)n(CC(=O)c1cccc(Cl)c1)c(=O)n2C (stereo not shown) [Example 42, 1-[2-(3-Chlorophenyl)-2-oxo-ethyl]-8-(hexahydropyrrolo[3,4-b]pyrrol-1-yl)-3-methyl-7-(3-methylbut-2-enyl)-3,7-dihydropurine-2,6-dione]
12	CC(C)=CCn1c(N2CCC3CNCC32)nc2c1c(=O)n(CC(O)c1ccccc1)c(=O)n2C (stereo not shown) [Example 14, 8-(Hexahydropyrrolo[3,4-b]pyrrol-1-yl)-1-(2-hydroxy-2-phenylethyl)-3-methyl-7-(3-methyl-but-2-enyl)-3,7-dihydropurine-2,6-dione hydrochloride]
10.5	CC(C)=CCn1c(N2CCC3CNCC32)nc2c1c(=O)n(CC(=O)c1ccccc1Cl)c(=O)n2C (stereo not shown) [Example 41, 1-[2-(2-Chlorophenyl)-2-oxo-ethyl]-8-(hexahydropyrrolo[3,4-b]pyrrol-1-yl)-3-methyl-7-(3-methylbut-2-enyl)-3,7-dihydropurine-2,6-dione trifluoroacetate]
19	CC(C)=CCn1c(N2CCC3CNCC32)nc2c1c(=O)n(Cc1nc3cc(F)ccc3s1)c(=O)n2C (stereo not shown) [Example 16, 1-(5-Fluorobenzothiazol-2-ylmethyl)-8-(hexahydropyrrolo[3,4-b]pyrrol 1-yl)-3-methyl-7-(3-methylbut-2-enyl)-3,7-dihydropurine-2,6-dione hydrochloride]
